Laboratory results: EPA's ToxRefDB 2

Tests used:
hamster = conditions: Subchronic oral toxicity in rodents, golden syrian, Feed, dose end: 90 day, group: systemic, systemic / in life observation / body weight / body weight + systemic / in life observation / body weight / body weight gain + systemic / in…
rat [1] = conditions: Prenatal developmental toxicity study, sprague dawley, Oral, Gavage/Intubation, dose end: 20 GD
rabbit [2] = conditions: Prenatal developmental toxicity study, new zealand white, Oral, Gavage/Intubation, dose end: 20 GD
dog [3] = conditions: Subchronic oral toxicity in nonrodent, beagle, Capsule, dose end: 13 week, group: systemic, systemic / clinical chemistry / alanine aminotransferase (alt/sgpt) / alanine aminotransferase (alt/sgpt) + systemic / clinical chemistry / …
rat [4] = conditions: Subchronic oral toxicity in rodents, wistar, Feed, dose end: 90 day, group: systemic, systemic / clinical chemistry / cholesterol / cholesterol + systemic / pathology microscopic / kidney / degeneration + systemic / pathology …
rat [5] = conditions: Prenatal developmental toxicity study, sprague dawley, Oral, Gavage/Intubation, dose end: 20 GD; remark: listed apart in the source
dog [6] = conditions: Chronic toxicity, beagle, Oral, Capsule, dose end: 55 week, group: systemic
rat [7] = conditions: Combined chronic toxicity/carcinogenicity, wistar, Oral, Feed, dose end: 106 week, group: systemic
rat [8] = conditions: Multigenerational reproductive toxicity study, wistar, Oral, Feed, dose end: 2 generation
rabbit [9] = conditions: Prenatal developmental toxicity study, new zealand white, Oral, Gavage/Intubation, dose end: 28 GD
rat [10] = conditions: Combined chronic toxicity/carcinogenicity, sprague dawley, Oral, Feed, dose end: 104 week, group: systemic
rat [11] = conditions: Multigenerational reproductive toxicity study, other, Oral, Feed, dose end: 2 generation
dog [12] = conditions: Chronic toxicity, beagle, Oral, Feed, dose end: 52 week, group: systemic
rat [13] = conditions: Combined chronic toxicity/carcinogenicity, other, Oral, Feed, dose end: 24 month, group: systemic
mouse [14] = conditions: Subchronic oral toxicity in rodents, cd1, Feed, dose end: 90 day, group: systemic, systemic / clinical chemistry / hepatic mixed function oxidase (mfo) assay / hepatic mixed function oxidase (mfo) assay + systemic / in life…
rat [15] = conditions: Subchronic oral toxicity in rodents, sprague dawley, Feed, dose end: 90 day, group: systemic
dog [16] = conditions: Subchronic oral toxicity in nonrodent, beagle, Feed, dose end: 90 day, group: systemic, systemic / clinical chemistry / cortisol / cortisol + systemic / organ weight / liver / relative to body weight + systemic / pathology …
mouse [17] = conditions: Carcinogenicity; b6c3f1; Oral; Feed; dose end: 78 week; group: systemic; systemic / in life observation / body weight / body weight gain
rat [18] = conditions: Combined chronic toxicity/carcinogenicity, sprague dawley, Dermal, Topical, dose end: 101 week, group: systemic
rat [19] = conditions: Developmental neurotoxicity study; sprague dawley; Oral; Water; dose end: 42 PND; group: cannot be grouped; developmental / developmental landmark / eye opening / eye opening + systemic / in life observation / body weight / offspring (pup) weight
rat [20] = conditions: Developmental neurotoxicity study; sprague dawley; Oral; Gavage/Intubation; dose end: 70 PND; group: cannot be grouped; reproductive / reproductive performance / gestational length / gestational length + systemic / in life observation / body weight / body …
rat [21] = conditions: Developmental neurotoxicity study; fischer; Oral; Water; dose end: 90 PND; group: cannot be grouped; developmental / developmental landmark / incisor eruption / incisor eruption + systemic / in life observation / body weight / offspring (pup…
[22] = group: developmental, developmental / developmental malformation / bone / incomplete ossification
[23] = group: maternal, reproductive / reproductive performance / postimplantation loss / postimplantation loss + systemic / in life observation / body weight / …
[24] = group: developmental, developmental / developmental malformation / bone / full supernumerary + developmental / developmental malformation / bone / incomplete …
[25] = group: maternal, reproductive / reproductive performance / aborted / aborted + systemic / in life observation / body weight / body weight gain + systemic / …
[26] = group: developmental, systemic / in life observation / body weight / fetal weight + developmental / developmental malformation / bone / absent + developmental / …
[27] = group: maternal, reproductive / reproductive performance / implantations / implantations
[28] = systemic / pathology microscopic / adrenal gland / vacuolization + systemic / clinical chemistry / [other] / [other] + systemic / clinical …
[29] = systemic / in life observation / body weight / body weight gain
[30] = group: maternal, reproductive / offspring survival early / litter size / litter size
[31] = group: parental, systemic / organ weight / epididymis / absolute + systemic / organ weight / epididymis / relative to body weight
[32] = group: parental, systemic / organ weight / epididymis / absolute + systemic / organ weight / epididymis / relative to body weight + systemic / organ weight…
[33] = group: reproductive, reproductive / reproductive performance / gestational length / gestational length + reproductive / reproductive performance / implantations…
[34] = group: developmental, developmental / developmental malformation / bone / incomplete ossification + developmental / developmental malformation / eye / [other] + …
[35] = group: maternal, reproductive / reproductive performance / aborted / aborted + reproductive / reproductive performance / postimplantation loss / …
[36] = systemic / in life observation / clinical signs / fur (altered appearance)
[37] = group: offspring, developmental / offspring survival late / viability index / viability index + systemic / in life observation / body weight / offspring (pup…
[38] = group: parental, systemic / pathology microscopic / liver / hypertrophy + systemic / pathology microscopic / liver / vacuolization
[39] = group: reproductive, reproductive / offspring survival early / dead fetuses / dead fetuses
[40] = systemic / clinical chemistry / albumin / albumin + systemic / clinical chemistry / alkaline phosphatase (alp/alk) / alkaline phosphatase (…
[41] = systemic / hematology / hematocrit (hct) / hematocrit (hct) + systemic / hematology / hemoglobin (hgb) / hemoglobin (hgb)
[42] = systemic / pathology microscopic / liver / hypertrophy + systemic / pathology microscopic / liver / vacuolization + systemic / clinical …
[43] = systemic / pathology microscopic / thyroid gland / hypertrophy
[44] = systemic / pathology microscopic / thyroid gland / hypertrophy + systemic / clinical chemistry / alanine aminotransferase (alt/sgpt) / …
[45] = systemic / pathology microscopic / mammary gland / fibroadenoma + systemic / in life observation / body weight / body weight + systemic / in…
[46] = systemic / pathology microscopic / mammary gland / fibroadenoma + systemic / pathology microscopic / pituitary gland / acidophil adenoma + …

## CCCCOC(=O)C(C)Oc1ccc(Oc2ccc(C(F)(F)F)cn2)cc1 (centres undefined) [Fluazifop-butyl]
hamster
  LEL: 292 mg/kg/day
  LOAEL: 292 mg/kg/day
  NEL: 78.3 mg/kg/day
  NOAEL: 78.3 mg/kg/day
Rat [1]; [22]
  LEL: 10 mg/kg/day
  LOAEL: 10 mg/kg/day
  NEL: < 10 mg/kg/day
  NOAEL: < 10 mg/kg/day
Rat [1]; [23]
  LEL: 200 mg/kg/day
  LOAEL: > 200 mg/kg/day
  NEL: 50 mg/kg/day
  NOAEL: ≥ 200 mg/kg/day
Rabbit [2]; [24]
  LEL: 50 mg/kg/day
  LOAEL: 50 mg/kg/day
  NEL: 10 mg/kg/day
  NOAEL: 10 mg/kg/day
Rabbit [2]; [25]
  LEL: 50 mg/kg/day
  LOAEL: 50 mg/kg/day
  NEL: 10 mg/kg/day
  NOAEL: 10 mg/kg/day
Dog [3]
  LEL: 250 mg/kg/day
  LOAEL: 250 mg/kg/day
  NEL: 25 mg/kg/day
  NOAEL: 25 mg/kg/day
Rat [4]
  LEL: 7.1 mg/kg/day
  LOAEL: 7.1 mg/kg/day
  NEL: 0.7 mg/kg/day
  NOAEL: 0.7 mg/kg/day
Rat [5]; group: developmental, systemic / in life observation / body weight / fetal weight
  LOAEL: 5 mg/kg/day
Rat [5]; [26]
  LEL: 5 mg/kg/day
  NEL: 1 mg/kg/day
  NOAEL: 1 mg/kg/day
Rat [5]; [27]
  LEL: 10 mg/kg/day
  LOAEL: > 200 mg/kg/day
  NEL: 5 mg/kg/day
  NOAEL: ≥ 200 mg/kg/day
Dog [6]; [28]
  NEL: 5 mg/kg/day
  NOAEL: 5 mg/kg/day
Dog [6]; systemic / pathology microscopic / adrenal gland / vacuolization + systemic / pathology microscopic / thymus / involution
  LOAEL: 25 mg/kg/day
Dog [6]; systemic / pathology microscopic / adrenal gland / vacuolization + systemic / pathology microscopic / thymus / involution + systemic / …
  LEL: 25 mg/kg/day
Rat [7]; [29]
  LEL: 0.127 mg/kg/day
  NEL: < 0.127 mg/kg/day
Rat [7]; systemic / pathology microscopic / kidney / nephropathy + systemic / in life observation / mortality / mortality
  LOAEL: 4.15 mg/kg/day
Rat [7]; systemic / pathology microscopic / kidney / nephropathy + systemic / organ weight / kidney / absolute + systemic / organ weight / kidney / …
  NOAEL: 0.51 mg/kg/day
Rat [8]; [30]
  LEL: 17.5 mg/kg/day
  LOAEL: 17.5 mg/kg/day
  NEL: 5.8 mg/kg/day
  NOAEL: 5.8 mg/kg/day
Rat [8]; group: offspring, reproductive / offspring survival early / litter size / litter size
  LOAEL: 17.5 mg/kg/day
Rat [8]; group: offspring, reproductive / offspring survival early / litter size / litter size + systemic / pathology microscopic / kidney / hydronephrosis
  NOAEL: 5.8 mg/kg/day
Rat [8]; group: offspring, systemic / pathology microscopic / kidney / hydronephrosis
  LEL: 7.1 mg/kg/day
Rat [8]; group: offspring, systemic / pathology microscopic / kidney / hydronephrosis + developmental / offspring survival late / viability index / viability index + …
  NEL: 0.88 mg/kg/day
Rat [8]; [31]
  LEL: 0.74 mg/kg/day
  NEL: < 0.74 mg/kg/day
Rat [8]; [32]
  LOAEL: 5.8 mg/kg/day
  NOAEL: 0.74 mg/kg/day
Rat [8]; group: reproductive, reproductive / offspring survival early / birth index / live birth index + reproductive / reproductive performance / fertility / fertility…
  NEL: 0.88 mg/kg/day
Rat [8]; group: reproductive, reproductive / reproductive performance / gestational length / gestational length
  LEL: 7.1 mg/kg/day
Rat [8]; [33]
  LOAEL: > 21.7 mg/kg/day
  NOAEL: ≥ 21.7 mg/kg/day
Rabbit [9]; [34]
  LEL: 90 mg/kg/day
  LOAEL: 90 mg/kg/day
  NEL: 30 mg/kg/day
  NOAEL: 30 mg/kg/day
Rabbit [9]; [35]
  LEL: 90 mg/kg/day
  LOAEL: 90 mg/kg/day
  NEL: 30 mg/kg/day
  NOAEL: 30 mg/kg/day
Rat [10]; [36]
  LEL: 0.1 mg/kg/day
  NEL: < 0.1 mg/kg/day
Rat [10]; systemic / in life observation / mortality / mortality
  LOAEL: 3 mg/kg/day
Rat [10]; systemic / in life observation / mortality / mortality + systemic / in life observation / clinical signs / fur (altered appearance) + …
  NOAEL: 1 mg/kg/day

## OC(c1ccc(Cl)cc1)(c1ccc(Cl)cc1)C(Cl)(Cl)Cl [Dicofol]
Rat [11]; group: offspring, developmental / offspring survival late / [other] / [other] + developmental / offspring survival late / viability index / viability index
  LEL: 11.2 mg/kg/day
Rat [11]; group: offspring, developmental / offspring survival late / [other] / [other] + developmental / offspring survival late / viability index / viability index + …
  NEL: 2.2 mg/kg/day
Rat [11]; [37]
  LOAEL: > 23.2 mg/kg/day
  NOAEL: ≥ 23.2 mg/kg/day
Rat [11]; [38]
  LEL: 1.9 mg/kg/day
  LOAEL: 1.9 mg/kg/day
  NEL: 0.4 mg/kg/day
  NOAEL: 0.4 mg/kg/day
Rat [11]; [39]
  LEL: 23.2 mg/kg/day
  LOAEL: > 23.2 mg/kg/day
  NEL: 11.2 mg/kg/day
  NOAEL: ≥ 23.2 mg/kg/day
Dog [12]; [40]
  LOAEL: 5.42 mg/kg/day
  NOAEL: 0.85 mg/kg/day
Dog [12]; [41]
  LEL: 0.12 mg/kg/day
  NEL: < 0.12 mg/kg/day
Rat [13]; systemic / pathology microscopic / liver / hypertrophy + systemic / pathology microscopic / liver / vacuolization
  LOAEL: 2.23 mg/kg/day
Rat [13]; [42]
  LEL: 2.23 mg/kg/day
  NEL: 0.22 mg/kg/day
  NOAEL: 0.22 mg/kg/day
Mouse [14]
  LEL: 18.2 mg/kg/day
  LOAEL: 18.2 mg/kg/day
  NEL: 1.6 mg/kg/day
  NOAEL: 1.6 mg/kg/day
Rat [15]; [43]
  LEL: 0.64 mg/kg/day
  LOAEL: 0.64 mg/kg/day
Rat [15]; [44]
  NEL: 0.07 mg/kg/day
  NOAEL: 0.07 mg/kg/day
Dog [16]
  LEL: 3.3 mg/kg/day
  LOAEL: 3.3 mg/kg/day
  NEL: 0.29 mg/kg/day
  NOAEL: 0.29 mg/kg/day
Mouse [17]
  LEL: 35 mg/kg/day
  LOAEL: 35 mg/kg/day
  NEL: 17 mg/kg/day
  NOAEL: 17 mg/kg/day

## CC/C(=C(\c1ccc(O)cc1)c1ccc(OCCN(C)C)cc1)c1ccccc1 [4-Hydroxytamoxifen]
Rat [18]; [45]
  LEL: 0.02 mg/kg/day
  NEL: < 0.02 mg/kg/day
Rat [18]; [46]
  LOAEL: > 1 mg/kg/day
  NOAEL: ≥ 1 mg/kg/day

## Cn1cc[nH]c1=S [Methimazole]
Rat [19]
  LEL: 7 mg/kg/day
  LOAEL: > 7 mg/kg/day
  NEL: < 7 mg/kg/day
  NOAEL: ≥ 7 mg/kg/day
Rat [20]
  LEL: 20 mg/kg/day
  LOAEL: > 20 mg/kg/day
  NEL: < 20 mg/kg/day
  NOAEL: ≥ 20 mg/kg/day
Rat [21]
  LEL: 1.5 mg/kg/day
  LOAEL: > 15 mg/kg/day
  NEL: < 1.5 mg/kg/day
  NOAEL: ≥ 15 mg/kg/day
